Earlier results, collected in patent US20080145318A1, “ATOMOXETINE FORMULATIONS AND ASSOCIATED METHODS” (priority 2006, published 2008).

Tests used:
[1] = biological target: norepinephrine reuptake transporter (Homo sapiens, UniProt P23975); conditions: relative to atomoxetine, in words
other receptor systems = conditions: in words
serotonin reuptake = serotonin reuptake (Homo sapiens, UniProt P31645); conditions: in words
serotonin reuptake, sequence (P31645 whole entry): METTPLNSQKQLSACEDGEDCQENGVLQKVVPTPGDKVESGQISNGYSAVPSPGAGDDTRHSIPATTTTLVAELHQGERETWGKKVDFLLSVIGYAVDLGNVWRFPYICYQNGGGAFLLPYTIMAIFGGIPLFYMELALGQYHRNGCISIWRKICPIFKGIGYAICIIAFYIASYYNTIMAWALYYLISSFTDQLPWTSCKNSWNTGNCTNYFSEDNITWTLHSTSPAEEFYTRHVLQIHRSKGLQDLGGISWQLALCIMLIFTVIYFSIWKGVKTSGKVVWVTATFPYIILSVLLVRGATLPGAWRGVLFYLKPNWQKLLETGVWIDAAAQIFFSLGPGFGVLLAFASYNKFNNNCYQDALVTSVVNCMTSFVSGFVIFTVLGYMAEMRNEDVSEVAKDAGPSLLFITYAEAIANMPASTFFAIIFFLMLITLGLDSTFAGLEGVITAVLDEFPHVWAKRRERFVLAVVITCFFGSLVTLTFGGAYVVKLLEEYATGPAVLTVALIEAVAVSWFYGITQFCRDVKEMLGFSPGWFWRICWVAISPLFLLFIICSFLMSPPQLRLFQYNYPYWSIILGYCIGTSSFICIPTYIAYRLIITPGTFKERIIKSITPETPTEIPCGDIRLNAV

norepinephrine reuptake transporter, sequence (P23975 whole entry): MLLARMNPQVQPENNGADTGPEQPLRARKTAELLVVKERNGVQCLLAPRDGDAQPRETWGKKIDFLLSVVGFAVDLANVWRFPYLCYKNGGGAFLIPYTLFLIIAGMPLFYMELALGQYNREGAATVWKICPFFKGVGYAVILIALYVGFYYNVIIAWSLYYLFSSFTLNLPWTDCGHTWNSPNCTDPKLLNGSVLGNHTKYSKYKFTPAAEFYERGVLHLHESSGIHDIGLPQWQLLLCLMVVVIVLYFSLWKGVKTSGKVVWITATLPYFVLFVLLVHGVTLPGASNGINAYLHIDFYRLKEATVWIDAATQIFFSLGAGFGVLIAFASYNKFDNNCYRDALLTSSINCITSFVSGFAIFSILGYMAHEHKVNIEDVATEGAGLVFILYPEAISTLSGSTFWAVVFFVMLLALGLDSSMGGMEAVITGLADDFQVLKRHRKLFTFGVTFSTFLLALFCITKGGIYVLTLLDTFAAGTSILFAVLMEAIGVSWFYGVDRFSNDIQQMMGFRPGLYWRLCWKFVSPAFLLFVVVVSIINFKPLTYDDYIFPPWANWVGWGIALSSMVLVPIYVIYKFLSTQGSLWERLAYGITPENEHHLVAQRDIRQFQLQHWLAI

Compound: CNCCC(Oc1ccccc1C)c1ccccc1 (single isomer, unassigned; (-)) [atomoxetine, (−)-N-methyl-3-phenyl-3-(o-tolyloxy)-propylamine]
- plasma half-life (individuals having normal activity in the CYP2D6 pathway): about 5 hours
- half-life (individuals having reduced activity in the CYP2D6 pathway (poor metabolizers)): about 24 hours

Compound: Cc1cc(O)ccc1OC(CCN)c1ccccc1 (centres unmarked) [4H-NDA, N-desmethyl-4-hydroxyatomoxetine]
- inhibitory activity to the norepinephrine reuptake transporter compared to atomoxetine [1]: less active
- affinity to other receptor systems (other receptor systems): little affinity

Compound: CNCCC(Oc1ccc(O)cc1C)c1ccccc1 (centres unmarked) [4HA, 4-hydroxyatomoxetine]
- serotonin reuptake inhibitor activity (serotonin reuptake): pharmacologically active
- affinity to other receptor systems (other receptor systems): little affinity

Compound: Cc1ccccc1OC(CCN)c1ccccc1 (centres unmarked) [NDA, N-desmethylatomoxetine]
- inhibitory activity to the norepinephrine reuptake transporter compared to atomoxetine [1]: less active
- affinity to other receptor systems (other receptor systems): little affinity
